“Also recorded” adds a separate entry of the source. Ends that are not written are not given here.
Experiments:
S. pneumoniae = test: MIC test / antimicrobial activity, S. pneumoniae; assay type: cell-based, Streptococcus pneumoniae
Protocol: (§1) The active AMPs, STAMPs and the like can be identified and/or validated using an in vitro screening assay.
(§2) It will be appreciated that other assays as are well known in the art or that will become apparent to those having skill in the art upon review of this disclosure may also be used to identify active AMPs. Such assays include, for example, the assay described in Lehrer et al. (1988) J. Immunol.
(§3) Peptides were evaluated for basic antimicrobial activity by broth microdilution, as described previously (Eckert et al. (2006) Antimicrob Agents Chemother., 50: 3651-3657; Eckert et al. (2006) Antimicrob Agents Chemother., 50: 1480-1488). Briefly, ˜1×10^5 cfu/mL bacteria were diluted in TH (S. mutans), or Mueller-Hinton (MH) broth (all other organisms) and distributed to 96-well plates. Serially-diluted (2-fold) peptides were then added and the plates incubated at 37° C. for 18-24 h. […] All experiments were conducted 10 times.

microorganisms [1] = test: Peptide activities: targeting/binding, antimicrobial, growth or phenotype altering (Tables 7, 8); assay type: cell-based; conditions: peptides having multiple activities
microorganisms [2] = test: Targeting peptide binding to target microorganisms (Tables 3, 10, 12); conditions: microorganism(s) the targeting peptide binds; binding in aqueous buffers varied with peptide solubility, preferably 1x PBS
microorganisms [3] = test: Morphology, biofilm and growth disrupting peptides (Table 5); assay type: cell-based; parameters: key: A: Peptide aggregates; B: Less hyphal formation; Clumps; Diffuse clumps and small polyps; F: Diffuse growth; H: Thin; I: Growth inhibition; Microcolony formation; Rippled; Small polyps; Thick; W: Halo formation on top, microlonies on bottom
Description: In certain embodiments peptides that induce alterations in phenotype or other biological activities can also be used as antimicrobial effector moieties.

S. mutans = test: MIC test (broth microdilution) / antimicrobial activity, S. mutans; assay type: cell-based, Streptococcus mutans
Protocol: as §1, §2, §3

B. subtilis = test: MIC test / antimicrobial activity, B. subtilis; assay type: cell-based, Bacillus subtilis; conditions: B. subtilis
Protocol: as §1, §2, §3

Molecule: ASKQASKQASKQASKQASKQASRSLKNHLL [PF-523]
- Organism MIC (μM) (S. pneumoniae): S. pneumoniae, 50 μM
- Activities (microorganisms [1]): B M
- Target(s) (microorganisms [2]): S. epidermidis; also recorded: M. luteus; also recorded: C. albicans; also recorded: S. pneumoniae; also recorded: C. jeikeium; also recorded: C. jejuni

Molecule: CGKLLEQKNFFLKTR [PF-521]
- Organism MIC (μM) (S. pneumoniae): S. pneumoniae, 50 μM
- Activities (microorganisms [1]): G B M
- Target(s) (microorganisms [2]): S. epidermidis; also recorded: E. coli; also recorded: P. aeruginosa; also recorded: S. pneumoniae; also recorded: E. faecalis
- Organism, effect (microorganisms [3]; S. pneumoniae): S. pneumoniae (H)

Molecule: FIRKFLKKWLL [K-9]
- Organism MIC (μM) (S. mutans): S. mutans, 4 μM

Molecule: FLKFLKKFFKKLKY [K-20]
- Organism MIC (μM) (S. mutans): S. mutans, 8 μM

Molecule: FQKPFTGEEVEDFQDDDEIPTII [PF-437]
- Organism MIC (μM) (S. pneumoniae): S. pneumoniae, 50 μM
- Activities (microorganisms [1]): G M
- Organism, effect (microorganisms [3]; S. pneumoniae): S. pneumoniae (I)

Molecule: FTRKFLKFLHL [K-17]
- Organism MIC (μM) (S. mutans): S. mutans, 8 μM

Molecule: GIFKKFVKILYKVQKL [K-22]
- Organism MIC (μM) (S. mutans): S. mutans, 8 μM

Molecule: GILKKLFTKVF [K-13]
- Organism MIC (μM) (S. mutans): S. mutans, 16 μM

Molecule: GIVLIGLKLIPLLANVLR [PF-322]
- Organism MIC (μM) (B. subtilis): B. subtilis, 50 μM
- Activities (microorganisms [1]): G M
- Organism, effect: B. subtilis (microorganisms [3]): B. subtilis (H)
- Organism, effect: S. epidermidis (microorganisms [3]): S. epidermidis (C)

Molecule: GLGRVIGRLIKQIIWRR [K-1]
- Organism MIC (μM) (S. mutans): S. mutans, 25 μM

Molecule: GWLKMFKKIIGKFGKF [K-21]
- Organism MIC (μM) (S. mutans): S. mutans, 8 μM

Molecule: KILKFLFKKVF [K-8]
- Organism MIC (μM) (S. mutans): S. mutans, 4 μM

Molecule: KILKFLFKQVF [K-11]
- Organism MIC (μM) (S. mutans): S. mutans, 4 μM

Molecule: KILKKLFKFVF [K-12]
- Organism MIC (μM) (S. mutans): S. mutans, 8 μM

Molecule: KKFKKFKVLKIL [K-18]
- Organism MIC (μM) (S. mutans): S. mutans, 16 μM

Molecule: KLFKFLRKHLL [K-10]
- Organism MIC (μM) (S. mutans): S. mutans, 4 μM

Molecule: LGLTAGVAYAAQPTNQPTNQPTNQPTNQPTNQPTNQPRW-NH2 [PF-520]
- Organism MIC (μM) (S. pneumoniae): S. pneumoniae, 50 μM
- Activities (microorganisms [1]): G B M
- Organism, effect (microorganisms [3]; S. pneumoniae): S. pneumoniae (M)

Molecule: LLKLLKLKKLKF [K-19]
- Organism MIC (μM) (S. mutans): S. mutans, 16 μM

Molecule: LRKFLHKLF [K-14]
- Organism MIC (μM) (S. mutans): S. mutans, 8 μM

Molecule: LRKNLRWLF [K-15]
- Organism MIC (μM) (S. mutans): S. mutans, 4 μM

Molecule: LVLRICTDLFTFIKWTIKQRKS [PF-497]
- Organism MIC (μM) (B. subtilis): B. subtilis, 50 μM
- Activities (microorganisms [1]): B M
- Target(s) (microorganisms [2]): S. mutans; also recorded: B. subtilis; also recorded: E. coli

Molecule: NYRLVNAIFSKIFKKKFIKF [K-7]
- Organism MIC (μM) (S. mutans): S. mutans, 12.5 μM

Molecule: PDAPRTCYHKPILAALSRIVVTDR [PF-524]
- Organism MIC (μM) (S. pneumoniae): S. pneumoniae, 50 μM
- Activities (microorganisms [1]): G B M
- Target(s) (microorganisms [2]): S. epidermidis and E. coli and P. aeruginosa and C. albicans and MRSA and S. pneumoniae and E. faecalis and C. jeikeium
- Organism, effect (microorganisms [3]; E. coli): E. coli (M)
- Organism, effect (microorganisms [3]; E. faecalis): E. faecalis (C)
- Organism, effect (microorganisms [3]; MRSA): MRSA (C)
- Organism, effect (microorganisms [3]; S. pneumoniae): S. pneumoniae (M)

Molecule: PF-C145: peptide having multiple activities (chain 1 YGKESDP; chain 2 YGKESDP; Peptide with targeting and/or antimicrobial activity)
- Activities (microorganisms [1]): G B
- Target(s) (microorganisms [2]): A. naeslundii; also recorded: F. nucleatum; also recorded: P. gingivalis; also recorded: S. mutans; also recorded: T. denticola
- Organism, effect (microorganisms [3]; F. nucleatum): F. nucleatum (C)
- Organism, effect (microorganisms [3]; S. mutans): S. mutans (I)

Molecule: PF-C281: peptide having multiple activities (chain 1 KKEKLLTAIRLQHRAEIRGYFTIFFLFFRI; chain 2 KKEKLLTAIRLQHRAEIRGYFTIFFLFFRI; Peptide with targeting and/or antimicrobial activity)
- Activities (microorganisms [1]): G B
- Target(s) (microorganisms [2]): A. naeslundii; also recorded: F. nucleatum; also recorded: P. gingivalis; also recorded: S. mutans; also recorded: T. denticola
- Organism, effect (microorganisms [3]; S. mutans): S. mutans (F)

Molecule: PF-C291: peptide having multiple activities (chain 1 HPFLTGTGCPLFLIFRLFFVKAYFSFTVF; chain 2 HPFLTGTGCPLFLIFRLFFVKAYFSFTVF; Peptide with targeting and/or antimicrobial activity)
- Activities (microorganisms [1]): G B
- Target(s) (microorganisms [2]): A. naeslundii; also recorded: F. nucleatum; also recorded: P. gingivalis; also recorded: S. mutans
- Organism, effect (microorganisms [3]; F. nucleatum): F. nucleatum (T)
- Organism, effect (microorganisms [3]; S. mutans): S. mutans (F)

Molecule: SFMPEIQKNTIPTQMK [PF-512]
- Organism MIC (μM) (S. pneumoniae): S. pneumoniae, 50 μM
- Activities (microorganisms [1]): G B M
- Target(s) (microorganisms [2]): S. pneumoniae; also recorded: C. jeikeium
- Organism, effect (microorganisms [3]; S. pneumoniae): S. pneumoniae (H)

Molecule: SIGSMIGMYSFRHKTKHIKFTFGIPFILFLQFLLVYFYILK [PF-319]
- Activities (microorganisms [1]): G B
- Target(s) (microorganisms [2]): S. epidermidis; also recorded: B. subtilis; also recorded: C. difficile
- Organism, effect: B. subtilis (microorganisms [3]): B. subtilis (C)
- Organism, effect: S. epidermidis (microorganisms [3]): S. epidermidis (C)

Molecule: VMQSLYVKPPLILVTKLAQQN [PF-511]
- Organism MIC (μM) (S. pneumoniae): S. pneumoniae, 50 μM
- Activities (microorganisms [1]): G B M
- Target(s) (microorganisms [2]): E. coli; also recorded: P. aeruginosa; also recorded: S. pneumoniae; also recorded: C. jeikeium
- Organism, effect (microorganisms [3]; S. pneumoniae): S. pneumoniae (H)

Molecule: VWENRKKYLENEIERHNVFLKLGQEVIKGLNALASRGR [PF-257]
- Activities (microorganisms [1]): G B
- Target(s) (microorganisms [2]): S. epidermidis
- Organism, effect: M. luteus (microorganisms [3]): M. luteus (R)

Molecule: VYRKRKSILKIYAKLKGWH [K-2]
- Organism MIC (μM) (S. mutans): S. mutans, 12.5 μM

Molecule: VYSFLYVLVIVRKLLSMKKRIERL [PF-499]
- Organism MIC (μM) (B. subtilis): B. subtilis, 50 μM
- Activities (microorganisms [1]): B M
- Target(s) (microorganisms [2]): S. mutans; also recorded: E. coli

B1: PF-C180: peptide having multiple activities (peptide)
chain 1: TVEELDKAFTWGAAAALAIGVIAINVGLAAGYCYNNNDVF
chain 2: B1 chain 1
modifications: Peptide with targeting and/or antimicrobial activity
- Activities (microorganisms [1]): G B
- Target(s) (microorganisms [2]): F. nucleatum; also recorded: P. gingivalis; also recorded: S. mutans; also recorded: T. denticola
- Organism, effect (microorganisms [3]; P. gingivalis): P. gingivalis (R)
- Organism, effect (microorganisms [3]; S. mutans): S. mutans (S)

B2: PF-270: peptide having multiple activities (peptide)
chain 1: MYLTPYAWIAVGSIFAFSVTTIKIGDQNDEKQKSHKNDVHKR
chain 2: B2 chain 1
modifications: Peptide with targeting and/or antimicrobial activity
- Activities (microorganisms [1]): G B
- Target(s) (microorganisms [2]): S. epidermidis; also recorded: M. luteus; also recorded: P. aeruginosa
- Organism, effect: M. luteus (microorganisms [3]): M. luteus (H)

B3: PF-C181: peptide having multiple activities (peptide)
chain 1: KMRAGQVVFIYKLILVLLFYVLQKLFDLKKGCF
chain 2: B3 chain 1
modifications: Peptide with targeting and/or antimicrobial activity
- Activities (microorganisms [1]): G B
- Target(s) (microorganisms [2]): P. gingivalis
- Organism, effect (microorganisms [3]; F. nucleatum): F. nucleatum (T)

B4: PF-C120: peptide having multiple activities (peptide)
chain 1: ASLSTMTFKVMELKELIILLCGLTMLMIQTEFV
chain 2: B4 chain 1
modifications: Peptide with targeting and/or antimicrobial activity
- Activities (microorganisms [1]): G B
- Target(s) (microorganisms [2]): A. naeslundii; also recorded: F. nucleatum; also recorded: P. gingivalis; also recorded: S. mutans; also recorded: T. denticola
- Organism, effect (microorganisms [3]; F. nucleatum): F. nucleatum (T)

B5: PF-C091: peptide having multiple activities (peptide)
chain 1: ASNTPRFVRLTLFNFYSKIWNVTHLFLFNNL
chain 2: B5 chain 1
modifications: Peptide with targeting and/or antimicrobial activity
- Activities (microorganisms [1]): G B
- Target(s) (microorganisms [2]): A. naeslundii; also recorded: F. nucleatum; also recorded: P. gingivalis; also recorded: S. mutans; also recorded: T. denticola
- Organism, effect (microorganisms [3]; F. nucleatum): F. nucleatum (T)

B6: PF-389: peptide having multiple activities (peptide)
chain 1: GLQFKEIAEEFHITTTALQQWHKDNGYPIYNKNNRK
chain 2: B6 chain 1
modifications: Peptide with targeting and/or antimicrobial activity
- Activities (microorganisms [1]): G B
- Target(s) (microorganisms [2]): S. epidermidis and C. albicans and MRSA and S. pneumoniae and E. faecalis and C. jeikeium
- Organism, effect: C. jejuni (microorganisms [3]; C. jejuni): C. jejuni (R)
- Organism, effect: E. faecalis (microorganisms [3]; E. faecalis): E. faecalis (R)
- Organism, effect: MRSA (microorganisms [3]; MRSA): MRSA (C)
- Organism, effect: S. epidermidis (microorganisms [3]): S. epidermidis (R)
- Organism, effect: S. pneumoniae (microorganisms [3]; S. pneumoniae): S. pneumoniae (D)

Reference: patent US20110039763A1, “TARGETED ANTIMICROBIAL MOIETIES” (C3 JIAN, INC., priority 2009, published 2011)
